In brackets after ≈: the same amount, converted by molar mass. Where two headings read alike, the source gives them in different places.
Key:
[1] = Solubility studies, shake-flask method with HPLC quantification of HAL; format: physicochemical; details: for solubility in KCl pH 1.2: buffer KCl (0.2 M) pH 1.2, 24 h stirring at 25 °C; for solubility in KCl pH 1.2 / solubility in PBS pH 6.8: HAL concentration by HPLC at 248 nm; for improvement over HAL (solubility in KCl pH 1.2): buffer KCl pH 1.2, ratio to HAL solubility; for solubility in PBS pH 6.8: buffer PBS (0.2 M) pH 6.8, 24 h stirring at 25 °C; for improvement over HAL (solubility in PBS pH 6.8): buffer PBS pH 6.8, ratio to HAL solubility
Description: A Scharlau (Barcelona, Spain) 100 C18 chromatographic column (3 μm, 150 × 4.6 mm) was set at 25 °C and used for compound separation, using an isocratic elution method. The mobile phase was composed of a mixture of 90% acetonitrile and 10% water. The flow rate was 0.8 mL/min, and the injection volume was 30 μL. ChemStation software was used for data acquisition and analysis (Agilent Technologies, Santa Clara, CA, USA).

[2] = Acidity values (pKa) of the molecules, literature values; format: physicochemical; details: pKa1 of HAL minus pKa1 of coformer
[3] = high permeability but poor solubility in aqueous solution; ref [5],[6]; cited from earlier work
[4] = 25 °C, pH 1.2, aqueous buffer, thermodynamic from solid, read-out: solubility in KCl pH 1.2
[5] = 25 °C, pH 6.8, aqueous buffer, thermodynamic from solid, read-out: solubility in PBS pH 6.8

Q: Which solubility at 24 h [1, 4] does the source give for `O=C(CCCN1CCC(O)(c2ccc(Cl)cc2)CC1)c1ccc(F)cc1.O=C(CCCN1CCC(O)(c2ccc(Cl)cc2)CC1)c1ccc(F)cc1.O=C(O)/C=C/C(=O)O.O=C(O)/C=C/C(=O)O` [(HAL^+)2·(FU^2–)·(FU)] here?
A: Its solubility at 24 h is 1060 ± 27 µg/mL.

Q: What about the solubility at 24 h [1, 5] of the same compound?
A: The solubility at 24 h was 33 ± 4 µg/mL.

Q: And the solubility at 24 h ([1]; pH 1.2, read-out: solubility in KCl pH 1.2)?
A: The solubility at 24 h was roughly 1000 µg/mL.

Q: Which results are given for `O=C(CCCN1CCC(O)(c2ccc(Cl)cc2)CC1)c1ccc(F)cc1.O=C(CCCN1CCC(O)(c2ccc(Cl)cc2)CC1)c1ccc(F)cc1.O=C(O)CCCCCCC(=O)O.O=C(O)CCCCCCC(=O)O` [(HAL^+)2·(SU^2–)·(SU)]?
A: solubility in KCl pH 1.2 [1]: 1.074 ± 0.036 mg/mL; improvement over HAL (solubility in KCl pH 1.2) [1]: 1.3×; solubility in PBS pH 6.8 [1]: 0.017 ± 0.001 mg/mL; improvement over HAL (solubility in PBS pH 6.8) [1]: 2.3×

Q: Which “solubility in KCl pH 1.2” value [1] does the source give for `O=C(CCCN1CCC(O)(c2ccc(Cl)cc2)CC1)c1ccc(F)cc1.O=C(CCCN1CCC(O)(c2ccc(Cl)cc2)CC1)c1ccc(F)cc1.O=C(O)c1ccc(C(=O)O)cc1.O=C(O)c1ccc(C(=O)O)cc1` [(HAL^+)2·(TR^2–)·(TR)] here?
A: Its value is 0.678 ± 0.019 mg/mL.

Q: And the “solubility in PBS pH 6.8” value [1]?
A: Its value is 0.051 ± 0.002 mg/mL.

Q: For `O=C(O)CCCC(=O)O` [Glutaric acid, glutaric acid], which “ΔpKa1 (difference of acidity of the coformer with HAL)” value [2] is on record?
A: The value was 3.71.

Q: What does the source list for `O=C(CCCN1CCC(O)(c2ccc(Cl)cc2)CC1)c1ccc(F)cc1` [HAL, Haloperidol, reference compound]?
A: Biopharmaceutics Classification System (BCS) class [3]: Class II; solubility at 24 h ([1]; KCl buffer (0.2 M) pH 1.2, 25 °C, pH 1.2, aqueous buffer, thermodynamic from solid, read-out: solubility in KCl pH 1.2): 831 ± 42 µg/mL (≈ 2210 µM); solubility at 24 h ([1]; PBS buffer (0.2 M) pH 6.8, 25 °C, pH 6.8, aqueous buffer, thermodynamic from solid, read-out: solubility in PBS pH 6.8): 7 ± 1 µg/mL (≈ 18.6 µM)

Q: With `O=C(CCCN1CCC(O)(c2ccc(Cl)cc2)CC1)c1ccc(F)cc1.O=C(O)CCCC(=O)O` [HAL^+·GU^–] as the compound, how does the “solubility in KCl pH 1.2” value [1] read?
A: Its value is 1.021 ± 0.012 mg/mL.

Q: And the “solubility in PBS pH 6.8” value [1]?
A: Its value is 0.048 ± 0.001 mg/mL.

Q: Which results are given for `O=C(CCCN1CCC(O)(c2ccc(Cl)cc2)CC1)c1ccc(F)cc1.O=C(O)/C=C\C(=O)O` [HAL^+·ME^–]?
A: solubility at 24 h [1, 4]: 1400 ± 20 µg/mL; solubility at 24 h [1, 5]: 74 ± 4 µg/mL; solubility of the salt relative to the ionic cocrystal (HAL^+)2·(FU^2–)·(FU) ([1]; both phases with C4 coformers): twice

Q: For `O=C(CCCN1CCC(O)(c2ccc(Cl)cc2)CC1)c1ccc(F)cc1.O=C(O)CC(=O)O` [HAL^+·MO^–], which solubility at 24 h [1, 4] is on record?
A: The solubility at 24 h was 525 ± 37 µg/mL.

Q: And the solubility at 24 h [1, 5]?
A: Its solubility at 24 h is 119 ± 2 µg/mL.

Q: With `O=C(CCCN1CCC(O)(c2ccc(Cl)cc2)CC1)c1ccc(F)cc1.O=C(O)CCCCCC(=O)O` [HAL^+·PI^–] as the compound, how does the “solubility in KCl pH 1.2” value [1] read?
A: The value was 1.246 ± 0.035 mg/mL.

Q: And the “improvement over HAL (solubility in KCl pH 1.2)” value [1]?
A: Its value is 1.5×.

Q: And the “solubility in PBS pH 6.8” value [1]?
A: The value was 0.072 ± 0.001 mg/mL.

Q: What about the “improvement over HAL (solubility in PBS pH 6.8)” value [1] of the same compound?
A: Its value is 9.7×.

Q: Which “ΔpKa1 (difference of acidity of the coformer with HAL)” value [2] does the source give for `O=C(O)CCCCCC(=O)O` [Pimelic acid, pimelic acid] here?
A: The value was 3.55.

Q: For `O=C(O)CCCCCCC(=O)O` [Suberic acid, suberic acid], which “ΔpKa1 (difference of acidity of the coformer with HAL)” value [2] is on record?
A: Its value is 3.52.

Source: publication PMC12063055 (Crystal Growth & Design, 2025)
